{"source": "patent US20140113001A1", "about": "“ENHANCED ACTIVITY HYDROGEN PEROXIDE DISINFECTANT” (Virox Technologies Inc., priority 2002, published 2014)", "origin": "cited, not measured here", "system": "Staphylococcus aureus", "note": "Where two headings read alike, the source gives them in different places.", "data": [{"smiles": "OO", "note": "[hydrogen peroxide]", "values": [{"measurement": "time required to disinfect surfaces contaminated with staphylococcus aureus", "setting": "0.1% w/w aqueous solution", "result": 60, "unit": "min"}, {"measurement": "time required to disinfect surfaces contaminated with staphylococcus aureus", "setting": "25.8% w/w aqueous solution", "result": 0.333, "unit": "min"}]}]}
